Measurements published in patent US8703723B2, “Glycoside compounds and pharmaceutical compositions thereof” (Centrose, LLC, priority 2009, dated 2014).
Like-named read-outs stand apart in the source and are kept apart here.

Columns and labels:
A549 (NSCLC) cell line [1] = conditions: footnote 2: data from Langenhan et al. 2005; cited from earlier work
[2] = test system: NCI-H460 (NSCLC) cell line; conditions: footnote 2: data from Langenhan et al. 2005; cited from earlier work
[3] = test system: SKOV3 (Ovarian) cell line; conditions: footnote 2: data from Langenhan et al. 2005; cited from earlier work
A549 (NSCLC) cell line [4] = assay: Cancer cell cytotoxicity assay (Calcein AM / Cell Titer-Glo), A549; format: cell-based, human
Procedure: (§1) Compounds of the invention and comparative compounds were assayed in three cancer cell lines to confirm cytotoxic activity and to set a range of concentrations to use in subsequent assays. All cell lines were maintained in RPMI medium 1640 supplemented with 10% (wt/vol) fetal bovine serum and penicillin-streptomycin (100 units/ml and 100 μg/ml). Cells were routinely checked for microbial or mycoplasma contamination and if necessary replaced. Cells were harvested by trypsinization using 0.25% trypsin and 0.1% EDTA and then counted in a ViCell XR coulter counter in duplicate, before and after dilution for assay plating. Between four to nine different types of human cancer cells were plated at a density of 10,000-15,000 cells per well of each 96-well black tissue culture treated microtiter plate, then were grown for 1 hour at 37° C. with 5% CO2/95% air in a humidified incubator to allow cells to attach before compound addition. Compound stocks (100×) were prepared in 96-well V-bottom polypropylene microtiter plates. Five serial (1:2) dilutions were made with anhydrous DMSO at 100× the final concentration used in the assay. The individual wells in compound-containing […] well plates were diluted 1:10 with complete cell culture medium and the 10× (10 μL) stocks were added to 90 μl of cells in each plate to ensure full mixing of stocks with culture media by using a Biomek FX liquid handler with 96-well head. Doxorubicin was used as the control to monitor the behavior of each cell line. Cells were incubated with the compounds for 3 to 4 days before fluorescence and luminescence reading. Test plates were removed from the incubator and washed once in sterile PBS to remove serum containing calcium esterases. Calcein AM (acetoxymethyl ester) reagent was added and the cells were incubated for 30 min at 37° C. Plates were read for emission by using a fluorescein filter (excitation 485 nm, emission 535 nm). An equal volume (30 μL) of Cell Titer-Glo reagent (Promega Corporation, Inc.) was added and incubated for 10 min at room temperature with gentle agitation to lyse the cells. Each plate was re-read for luminescence to confirm the inhibition observed in the fluorescent […] assay as a measure of cell viability. The cancer cell cytotoxicity assays were run in triplicate using ≧5 different drug concentrations, and the data were analyzed to establish statistical significance and a valid IC50 value for inhibition of cell growth, based on ≧2 log differences in drug effect.
(§2) The cancer cell cytotoxicities (determined substantially according to the method of Example 5) of various compounds of the invention and comparative compounds as determined in four to five different human cancer cell lines are shown in Table 1. The structures of the compounds listed are found in FIGS. 2-4.

H1299 (NSCLC) cell line = assay: Cancer cell cytotoxicity assay (Calcein AM / Cell Titer-Glo), H1299; format: cell-based, human
Procedure: as §1, §2

[5] = test system: NCI-H460 (NSCLC) cell line; assay: Cancer cell cytotoxicity assay (Calcein AM / Cell Titer-Glo), NCI-H460; format: cell-based, human
Procedure: as §1, §2

[6] = test system: HT29 (Colorectal) cell line; assay: Cancer cell cytotoxicity assay (Calcein AM / Cell Titer-Glo), HT29; format: cell-based, human
Procedure: as §1, §2

[7] = test system: SKOV3 (Ovarian) cell line; assay: Cancer cell cytotoxicity assay (Calcein AM / Cell Titer-Glo), SKOV3; format: cell-based, human
Procedure: as §1, §2

human cancer cell lines = assay: Cancer cell cytotoxicity, summary over four to five human cancer cell lines; format: cell-based; conditions: read-out: IC50 values (cancer cell cytotoxicity)
Procedure: as §1, §2

[8] = NSCLC, footnote 3: determined at same time as CEN07-117 and -121
[9] = NSCLC, footnote 5: determined at same time as CEN08-193
[10] = NSCLC, footnote 7: determined at same time as CEN08-180
[11] = Colorectal, footnote 3: determined at same time as CEN07-117 and -121
[12] = Colorectal, footnote 5: determined at same time as CEN08-193
[13] = Colorectal, footnote 7: determined at same time as CEN08-180
[14] = Ovarian, footnote 5: determined at same time as CEN08-193
[15] = Ovarian, footnote 7: determined at same time as CEN08-180
[16] = NSCLC, footnote 4: determined at same time as CEN08-177 and -178
[17] = NSCLC, footnote 6: determined at same time as CEN08-243 and -244

| SMILES | IC50 (A549 (NSCLC) cell line [1]) [nM] | IC50 [2] [nM] | IC50 [3] [nM] | IC50 (A549 (NSCLC) cell line [4]; [8]) [nM] | IC50 (A549 (NSCLC) cell line [4]; [9]) [nM] | IC50 (A549 (NSCLC) cell line [4]; [10]) [nM] | IC50 (H1299 (NSCLC) cell line; NSCLC, assay set not specified) [nM] | IC50 (H1299 (NSCLC) cell line; [8]) [nM] | IC50 (H1299 (NSCLC) cell line; [9]) [nM] | IC50 [5, 8] [nM] | IC50 [5, 9] [nM] | IC50 [5, 10] [nM] | IC50 [6, 11] [nM] | IC50 [6, 12] [nM] | IC50 [6, 13] [nM] | IC50 [7, 14] [nM] | IC50 [7, 15] [nM] | IC50 (human cancer cell lines) [nM] | also measured |
| --- | --- | --- | --- | --- | --- | --- | --- | --- | --- | --- | --- | --- | --- | --- | --- | --- | --- | --- | --- |
| CON[C@H]1CC[C@@]2(C)[C@H](CC[C@@H]3[C@@H]2CC[C@]2(C)[C@@H](C4=CC(=O)OC4)CC[C@]32O)C1 [(3β)-3-N-methoxyaminodigitoxigenin] | 8300 | 2400 | 3000 | – | – | – | – | – | – | – | – | – | – | – | – | – | – | – | – |
| CON(C1CCC2(C)C(CCC3C2CCC2(C)C(C4=CC(=O)OC4)CCC32O)C1)C1OCC(O)C(O)C1O [CEN07-W-101 (23S), reference compound] | 79 | 80 | 220 | 50 | 4 | 9 | 17 | 170 | 6 | 150 | 8 | 37 | 100 | 9 | 46 | 39 | 51 | – | – |
| CON(C1CCC2(C)C(CCC3C2CCC2(C)C(C4=CC(=O)OC4)CCC32O)C1)C1OCC(O)C(O)C1O [CEN07-W-102 (5S), reference compound] | 33 | 53 | 45 | 40 | 3 | 8 | 9 | 110 | 6 | 110 | 5 | 24 | 120 | 7 | 33 | 26 | 36 | – | IC50 (A549 (NSCLC) cell line [4]; [16]): 10 nM; IC50 (A549 (NSCLC) cell line [4]; [17]): 17 nM; IC50 (H1299 (NSCLC) cell line; [16]): 20 nM; IC50 (H1299 (NSCLC) cell line; [17]): 20 nM; IC50 [5, 16]: 10 nM; IC50 [5, 17]: 15 nM; IC50 ([6]; Colorectal, assay set not specified): 20 nM; IC50 ([7]; Ovarian, assay set not specified): 310 nM; IC50 ([7]; Ovarian, footnote 4: determined at same time as CEN08-177 and -178): 40 nM; IC50 ([7]; Ovarian, footnote 6: determined at same time as CEN08-243 and -244): 25 nM |
| C[C@]12CC[C@H](O[C@H]3OC[C@H](O)[C@@H](O)C3O)C[C@H]1CCC1C2CC[C@]2(C)[C@@H](C3=CC(=O)OC3)CC[C@]12O (stereo partly drawn) [CEN08-178, 3-O-digitoxigenin-L-riboside] | – | – | – | – | – | – | – | – | – | – | – | – | – | – | – | – | – | < 80 | IC50 (A549 (NSCLC) cell line [4]; Homo sapiens, A549, NSCLC, footnote 4: determined at same time as CEN08-177 and -178): 20 nM; IC50 (H1299 (NSCLC) cell line; Homo sapiens, NCI-H1299, NSCLC, footnote 4: determined at same time as CEN08-177 and -178): 50 nM; IC50 ([5]; Homo sapiens, NCI-H460, NSCLC, footnote 4: determined at same time as CEN08-177 and -178): 20 nM; IC50 ([6]; Homo sapiens, HT-29, Colorectal, footnote 4: determined at same time as CEN08-177 and -178): 70 nM; IC50 ([7]; Homo sapiens, SK-OV-3, Ovarian, footnote 4: determined at same time as CEN08-177 and -178): 80 nM |
| C[C@]12CCC(OC3OC[C@H](O)[C@@H](O)[C@@H]3O)C[C@H]1CCC1C2CC[C@]2(C)[C@@H](C3=CCOC3=O)CC[C@]12O (some centres unmarked) [CEN08-193] | – | – | – | – | – | – | – | – | – | – | – | – | – | – | – | – | – | < 80 | IC50 (A549 (NSCLC) cell line [4]; Homo sapiens, A549, NSCLC, footnote 5: determined at same time as CEN08-193): 4 nM; IC50 (H1299 (NSCLC) cell line; Homo sapiens, NCI-H1299, NSCLC, footnote 5: determined at same time as CEN08-193): 6 nM; IC50 ([5]; Homo sapiens, NCI-H460, NSCLC, footnote 5: determined at same time as CEN08-193): 9 nM; IC50 ([6]; Homo sapiens, HT-29, Colorectal, footnote 5: determined at same time as CEN08-193): 11 nM; IC50 ([7]; Homo sapiens, SK-OV-3, Ovarian, footnote 5: determined at same time as CEN08-193): 51 nM |
| C[C@H]1O[C@@H](O[C@H]2[C@@H](O)C[C@H](O[C@H]3[C@@H](O)C[C@H](O[C@H]4CC[C@@]5(C)[C@H](CC[C@@H]6[C@@H]5CC[C@]5(C)[C@@H](C7=CC(=O)OC7)CC[C@]65O)C4)O[C@@H]3C)O[C@@H]2C)C[C@H](O)[C@@H]1O [Digitoxin] | 280 | 280 | 700 | – | – | – | – | – | – | – | – | – | – | – | – | – | – | – | – |
